Experimental data as given in US20090325959A1 (priority 2008, published 2009).
Where two headings read alike, the source gives them in different places.

Columns and labels:
ERK2 = molecular target: T1, ERK2 (Homo sapiens, UniProt P28482); test: Kinase panel screen (KinaseProfiler), ERK2; format: biochemical
T1 construct: purchased Upstate, Millipore Bioscience Division (KinaseProfiler service)
Method: (§1) Compounds of Formulae I and II were examined for activity against a selected panel of kinases using the KinaseProfiler™ enzyme profiling services (Upstate, Millipore Bioscience Division). Percent kinase activity at 10 μM and 1 μM test compound and 10 μM ATP was determined against 40 wild-type recombinant human kinases according to Upstate's standard protocol: ASK1, BTK, CSK, c-RAF, GCK, GSK3β, IKKα, IKKβ, IRAK1, IRAK4, JNK1α1, JNK2α2, JNK3, ERK1, ERK2, MAPKAP-K2, MAPKAP-K3, MEK1, MKK4, MKK6, MKK7β, Mnk2, MSK1, PAK3, PDK1, PRAK, ROCK1, Rsk2, SAPK2a, SAPK2b, SAPK3, SAPK4, SRPK1, SRPK2, Syk, TAK1, TBK1, PI3-Kβ, PI3-Kγ, PI3-Kδ.

p70S6K human enzyme = molecular target: T2, p70S6K human enzyme (Homo sapiens, UniProt P23443, T412E); test: p70S6K inhibition assay (IMAP FP); format: biochemical;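 also: kinase reaction run at room temperature, phosphorylated substrate captured on IMAP beads and read as fluorescence polarization in mP, IC50 then converted to Ki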
T2 construct: purchased Upstate Chemicon 14-486
T2 sequence (P23443 1-421 T412E limits assumed): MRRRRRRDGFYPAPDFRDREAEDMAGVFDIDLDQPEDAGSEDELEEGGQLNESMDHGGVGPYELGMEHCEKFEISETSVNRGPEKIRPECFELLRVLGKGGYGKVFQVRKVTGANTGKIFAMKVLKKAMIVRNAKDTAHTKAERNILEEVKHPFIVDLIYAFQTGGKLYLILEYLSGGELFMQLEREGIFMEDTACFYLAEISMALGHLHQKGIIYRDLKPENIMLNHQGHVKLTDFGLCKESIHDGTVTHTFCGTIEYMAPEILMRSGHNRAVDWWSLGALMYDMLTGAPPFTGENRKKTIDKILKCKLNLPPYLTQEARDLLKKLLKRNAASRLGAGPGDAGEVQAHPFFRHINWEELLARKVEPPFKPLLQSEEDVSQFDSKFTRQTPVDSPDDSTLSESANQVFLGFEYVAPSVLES

[1] = system: ova-sensitized, ova-challenged mice; test: Prevention of airway hyperreactivity (Penh, methacholine) in mouse ovalbumin sensitization model; format: in vivo; conditions: for log10AUC (Penh): days 27 to 31; for airway hyperreactivity: intratracheal once a day during days 27 to 31
Method: The anti-inflammatory dosing paradigm consists of dosing the animals once a day starting on day 27 and finishing on either day 30 or 31 (1 hr prior to the aerosolized ovalbumin challenges on days 28 to 30) but not on day 32 when hyperreactivity evaluation occurs. […] Exposure to the methacholine doses consisted of a 3 minute period during which a nebulizer was aerosolizing the methacholine and an additional 3 minute period following the cessation of nebulization. […] Enhanced pause (Penh), a unitless index of airway hyperreactivity, is derived from the expiratory side of the respiratory waveform measured via the plethysmograph and is used as an indirect measure of airway resistance and hyperreactivity. […] Following the methacholine dose response, BALF was collected and all animals were anesthetized, bled and euthanized. […] The Penh value at each of the dose levels of methacholine represents the 6-minute average response. Change from baseline (CFB) in Penh was calculated at each methacholine dose and the area under the curve (AUC) for these CFB values was calculated using the trapezoidal rule. This same approach was applied for each mouse across multiple experiments. […] Data from equal experimental conditions across experiments performed on different days were pooled for statistical analysis and data reporting. […] A random intercept for each experiment was assumed to account for possible similarities of the results obtained from a given experiment (i.e., as a “blocking effect”). […] For FIG. 9, linear AUC values from compound treated mice were reported as a percent of linear AUC values from vehicle-treated ovalbumin-sensitized/ovalbumin-challenged (asthmatic) mice.

IRAK1 = molecular target: T3, IRAK1 (Homo sapiens, UniProt P51617); test: Kinase panel screen (KinaseProfiler), IRAK1; format: biochemical; conditions: 10 μM ATP; for activity at 1 µM: 1 μM test compound, read-out: IRAK1 Percent inhibition, 1 μM; for activity at 10 µM: 10 μM test compound, read-out: IRAK1 Percent inhibition, 10 μM
T3 construct: purchased Upstate, Millipore Bioscience Division (KinaseProfiler service)
T3 sequence (P51617 whole entry): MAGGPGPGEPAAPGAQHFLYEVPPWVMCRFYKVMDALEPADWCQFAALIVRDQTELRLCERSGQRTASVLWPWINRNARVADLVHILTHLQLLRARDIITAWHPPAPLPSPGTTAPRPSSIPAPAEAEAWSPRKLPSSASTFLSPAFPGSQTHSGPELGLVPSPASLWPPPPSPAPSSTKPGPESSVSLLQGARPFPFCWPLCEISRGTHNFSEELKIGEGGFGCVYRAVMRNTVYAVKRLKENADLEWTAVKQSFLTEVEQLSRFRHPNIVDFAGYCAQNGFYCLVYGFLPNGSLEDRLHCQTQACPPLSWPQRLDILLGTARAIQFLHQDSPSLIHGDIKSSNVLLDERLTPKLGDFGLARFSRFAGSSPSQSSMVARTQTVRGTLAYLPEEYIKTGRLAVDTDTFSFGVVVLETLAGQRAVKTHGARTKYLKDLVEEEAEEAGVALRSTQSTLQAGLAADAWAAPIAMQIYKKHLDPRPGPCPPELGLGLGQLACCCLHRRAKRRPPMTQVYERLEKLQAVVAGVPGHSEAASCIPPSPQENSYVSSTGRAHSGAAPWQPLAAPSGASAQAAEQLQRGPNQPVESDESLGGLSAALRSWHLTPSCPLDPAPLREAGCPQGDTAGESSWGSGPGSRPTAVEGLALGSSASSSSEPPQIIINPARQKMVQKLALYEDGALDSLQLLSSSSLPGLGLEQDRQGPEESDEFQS
Method: as §1

ROCK1 = molecular target: T4, ROCK1 (Homo sapiens, UniProt Q13464); test: Rho kinase inhibition assay (IMAP fluorescence polarization), ROCK1; format: biochemical;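 also: kinase reaction run 60 min at room temperature, then phosphorylated substrate captured on IMAP beads for 30 min, with fluorescence polarization read in mP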
T4 construct: purchased Upstate/Chemicon 14-601
T4 sequence (Q13464 17-535 limits assumed): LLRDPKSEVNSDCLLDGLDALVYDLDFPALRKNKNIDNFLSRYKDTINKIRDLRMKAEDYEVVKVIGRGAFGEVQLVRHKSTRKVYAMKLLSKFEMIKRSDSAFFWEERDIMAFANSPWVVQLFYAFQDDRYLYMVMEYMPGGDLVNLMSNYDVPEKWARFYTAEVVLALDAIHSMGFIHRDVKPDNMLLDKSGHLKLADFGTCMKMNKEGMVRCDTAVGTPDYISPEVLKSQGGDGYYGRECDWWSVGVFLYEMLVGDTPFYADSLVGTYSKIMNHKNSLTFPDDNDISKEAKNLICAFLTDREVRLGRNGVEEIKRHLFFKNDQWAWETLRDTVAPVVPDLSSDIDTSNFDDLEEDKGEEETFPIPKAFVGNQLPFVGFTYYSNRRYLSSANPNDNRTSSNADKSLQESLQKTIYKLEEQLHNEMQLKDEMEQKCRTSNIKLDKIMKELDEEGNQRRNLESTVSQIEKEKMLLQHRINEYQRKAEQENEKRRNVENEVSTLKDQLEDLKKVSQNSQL
Method: (§2) Following the pre-incubation, 10 μM ATP was added to initiate the reaction. After 60 minutes at room temperature, Molecular Devices IMAP™ binding solution was added to bind phosphorylated substrate. After 30 minutes of incubation in the presence of the IMAP™ beads, the fluorescence polarization was read and the ratio was reported as mP. IC50 values for compounds and EC50 values for ATP were calculated using the Prism software from Graphpad.

IRAK4 = molecular target: T5, IRAK4 (Homo sapiens, UniProt Q9NWZ3); test: Kinase panel screen (KinaseProfiler), IRAK4; format: biochemical; conditions: 10 μM ATP
T5 construct: purchased Upstate, Millipore Bioscience Division (KinaseProfiler service)
T5 sequence (Q9NWZ3 1-460): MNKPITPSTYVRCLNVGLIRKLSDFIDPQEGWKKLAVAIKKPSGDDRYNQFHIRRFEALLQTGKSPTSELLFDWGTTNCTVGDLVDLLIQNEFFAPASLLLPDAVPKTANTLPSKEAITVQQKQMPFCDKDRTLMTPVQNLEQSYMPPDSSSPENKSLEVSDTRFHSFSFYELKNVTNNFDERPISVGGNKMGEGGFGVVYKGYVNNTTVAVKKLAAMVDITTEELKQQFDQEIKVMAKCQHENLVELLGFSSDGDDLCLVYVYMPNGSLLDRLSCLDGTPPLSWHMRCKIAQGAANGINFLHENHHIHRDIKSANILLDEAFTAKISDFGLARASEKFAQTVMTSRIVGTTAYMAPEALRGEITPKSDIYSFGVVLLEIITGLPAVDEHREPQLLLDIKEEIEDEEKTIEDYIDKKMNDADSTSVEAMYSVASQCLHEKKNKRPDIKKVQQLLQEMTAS
Method: as §1

Akt3 human enzyme = molecular target: T6, Akt3 human enzyme (Homo sapiens, UniProt Q9Y243); test: Akt3 inhibition assay (IMAP FP); format: biochemical;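 also: kinase reaction run 60 min at room temperature after 30 µM ATP start, phosphorylated substrate captured on IMAP beads and read as fluorescence polarization (mP)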
T6 construct: purchased Upstate Chemicon 14-502
T6 sequence (Q9Y243 whole entry): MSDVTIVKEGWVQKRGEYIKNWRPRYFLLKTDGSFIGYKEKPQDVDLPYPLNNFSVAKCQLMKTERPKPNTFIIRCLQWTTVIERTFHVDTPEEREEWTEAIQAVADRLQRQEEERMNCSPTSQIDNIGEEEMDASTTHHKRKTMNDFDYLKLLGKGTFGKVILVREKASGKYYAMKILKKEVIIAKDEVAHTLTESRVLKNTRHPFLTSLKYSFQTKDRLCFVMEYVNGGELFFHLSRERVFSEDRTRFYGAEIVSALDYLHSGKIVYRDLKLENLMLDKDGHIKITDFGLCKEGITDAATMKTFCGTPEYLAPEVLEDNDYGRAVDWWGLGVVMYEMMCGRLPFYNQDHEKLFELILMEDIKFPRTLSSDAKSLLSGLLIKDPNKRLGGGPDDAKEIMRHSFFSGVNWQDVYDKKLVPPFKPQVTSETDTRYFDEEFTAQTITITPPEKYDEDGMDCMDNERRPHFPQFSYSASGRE

ROCK2 = molecular target: T7, ROCK2 (Homo sapiens, UniProt O75116); test: Rho kinase inhibition assay (IMAP fluorescence polarization), ROCK2; format: biochemical;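 also: kinase reaction started with 10 µM ATP and run 60 min at room temperature, then phosphorylated substrate captured on IMAP beads for 30 min and fluorescence polarization read in mP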
T7 construct: purchased Upstate/Chemicon 14-451
T7 sequence (O75116 11-552 limits assumed): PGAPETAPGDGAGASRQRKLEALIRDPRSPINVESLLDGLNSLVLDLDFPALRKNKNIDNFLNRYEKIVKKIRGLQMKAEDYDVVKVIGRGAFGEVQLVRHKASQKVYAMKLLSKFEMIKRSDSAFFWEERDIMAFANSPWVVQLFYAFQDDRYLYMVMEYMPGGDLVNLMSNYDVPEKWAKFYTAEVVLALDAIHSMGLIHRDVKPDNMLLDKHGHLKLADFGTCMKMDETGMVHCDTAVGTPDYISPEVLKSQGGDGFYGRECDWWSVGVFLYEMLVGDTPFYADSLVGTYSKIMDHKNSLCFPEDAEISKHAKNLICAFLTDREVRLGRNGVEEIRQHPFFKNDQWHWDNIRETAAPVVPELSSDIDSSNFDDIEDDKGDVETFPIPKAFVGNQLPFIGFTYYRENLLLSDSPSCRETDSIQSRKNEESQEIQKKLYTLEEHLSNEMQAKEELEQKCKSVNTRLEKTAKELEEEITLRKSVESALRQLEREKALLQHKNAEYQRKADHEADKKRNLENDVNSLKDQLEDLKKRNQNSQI
Method: as §2

GCK = molecular target: T8, GCK (Homo sapiens, UniProt Q12851); test: Kinase panel screen (KinaseProfiler), GCK; format: biochemical; conditions: for activity at 10 µM: 10 μM test compound, 10 μM ATP, read-out: GCK Percent inhibition, 10 μM
T8 construct: purchased Upstate, Millipore Bioscience Division (KinaseProfiler service)
T8 sequence (Q12851 1-820): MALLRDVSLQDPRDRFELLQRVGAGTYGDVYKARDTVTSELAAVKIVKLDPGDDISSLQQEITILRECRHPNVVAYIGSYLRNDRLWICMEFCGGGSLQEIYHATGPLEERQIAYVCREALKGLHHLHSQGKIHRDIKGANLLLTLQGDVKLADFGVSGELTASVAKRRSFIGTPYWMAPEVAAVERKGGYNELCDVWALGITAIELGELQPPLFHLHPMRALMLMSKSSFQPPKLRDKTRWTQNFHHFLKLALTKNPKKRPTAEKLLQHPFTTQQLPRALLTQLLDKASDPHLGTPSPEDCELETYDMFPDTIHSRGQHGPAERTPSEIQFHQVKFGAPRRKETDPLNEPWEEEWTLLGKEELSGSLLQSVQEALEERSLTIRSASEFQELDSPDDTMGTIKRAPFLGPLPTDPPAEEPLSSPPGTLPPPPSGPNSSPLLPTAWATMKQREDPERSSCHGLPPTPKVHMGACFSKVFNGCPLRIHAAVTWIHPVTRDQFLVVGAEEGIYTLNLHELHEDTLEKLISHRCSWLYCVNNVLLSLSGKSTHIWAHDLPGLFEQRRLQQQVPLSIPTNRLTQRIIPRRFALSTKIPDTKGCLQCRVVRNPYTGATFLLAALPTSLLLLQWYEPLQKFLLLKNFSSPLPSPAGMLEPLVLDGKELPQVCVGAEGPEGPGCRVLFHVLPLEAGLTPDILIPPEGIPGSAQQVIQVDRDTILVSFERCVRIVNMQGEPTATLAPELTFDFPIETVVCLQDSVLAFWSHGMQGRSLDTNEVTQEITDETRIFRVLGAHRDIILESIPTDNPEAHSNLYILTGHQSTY
Method: as §1

Mnk2 = molecular target: T9, Mnk2 (Homo sapiens, UniProt Q9HBH9); test: Kinase panel screen (KinaseProfiler), Mnk2; format: biochemical; conditions: 10 μM ATP; for activity at 1 µM: 1 μM test compound, read-out: Mnk2 Percent inhibition, 1 μM; for activity at 10 µM: 10 μM test compound, read-out: Mnk2 Percent inhibition, 10 μM
T9 construct: purchased Upstate, Millipore Bioscience Division (KinaseProfiler service)
T9 sequence (Q9HBH9 whole entry): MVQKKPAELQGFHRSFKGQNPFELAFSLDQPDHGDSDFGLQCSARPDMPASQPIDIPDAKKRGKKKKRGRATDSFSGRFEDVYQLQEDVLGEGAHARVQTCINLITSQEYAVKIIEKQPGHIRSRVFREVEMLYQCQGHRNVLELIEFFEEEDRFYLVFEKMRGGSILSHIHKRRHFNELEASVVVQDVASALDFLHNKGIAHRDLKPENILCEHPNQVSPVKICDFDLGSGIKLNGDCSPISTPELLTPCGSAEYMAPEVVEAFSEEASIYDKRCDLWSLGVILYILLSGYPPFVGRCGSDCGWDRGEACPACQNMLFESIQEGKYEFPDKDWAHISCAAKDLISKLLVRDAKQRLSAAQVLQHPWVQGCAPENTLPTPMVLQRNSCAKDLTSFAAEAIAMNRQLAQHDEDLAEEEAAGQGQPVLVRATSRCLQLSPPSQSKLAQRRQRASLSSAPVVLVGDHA
Method: as §1

ERK1 = molecular target: T10, ERK1 (Homo sapiens, UniProt P27361); test: Kinase panel screen (KinaseProfiler), ERK1; format: biochemical
T10 construct: purchased Upstate, Millipore Bioscience Division (KinaseProfiler service)
T10 sequence (P27361 whole entry): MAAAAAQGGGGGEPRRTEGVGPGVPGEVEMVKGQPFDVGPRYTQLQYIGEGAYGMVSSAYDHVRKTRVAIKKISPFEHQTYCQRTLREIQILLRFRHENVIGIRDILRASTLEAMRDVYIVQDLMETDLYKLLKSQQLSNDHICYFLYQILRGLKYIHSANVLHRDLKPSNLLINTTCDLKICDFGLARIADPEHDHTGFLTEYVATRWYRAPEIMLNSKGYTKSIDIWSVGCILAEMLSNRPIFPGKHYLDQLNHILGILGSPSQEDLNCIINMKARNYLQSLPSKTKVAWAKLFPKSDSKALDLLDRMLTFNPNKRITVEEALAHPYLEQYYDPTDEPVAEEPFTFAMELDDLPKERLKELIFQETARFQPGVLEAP
Method: as §1

[2] = Rat oral pharmacokinetics (plasma); format: in vivo; conditions: 20-30 μmol/kg
Method: Plasma (EDTA K2 anticoagulant) was collected from male, cannulated, CD Sprague Dawley rats to determine the pharmacokinetics of formulations containing compound inhibitors of Rho kinase. Each animal was dosed orally with a 4 ml/kg solution or suspension of each test compound in 10 mM acetate buffered saline, pH 4.5 at a final concentration range of 20-30 μmol/kg. Blood was collected at 0.25, 0.5, 1, 2, 4, 6, 8, and 24 hours. Plasma samples were assayed for the concentration of the test compound using an on-line, solid phase extraction LC/MS/MS analysis system.
Samples were analyzed on a QSTAR Elite, hybrid quadrupole time-of-flight mass spectrometer (Applied Biosystems, Framingham, Mass.) coupled with a Symbiosis Pharma integrated, on-line SPE-HPLC system (Spark Holland Inc., Plainsboro, N.J.). Analyst QS 2.0 software was used for instrument control, data acquisition and processing. […] Mobile Phase A consisted of 0.1% ammonium hydroxide in water and Mobile Phase B consisted of 0.1% formic acid in acetonitrile. Pharmacokinetic analyses were performed using WinNonlin software version 5.2 (Pharsight Corporation, Mountain View, Calif.).
As determined from the plasma concentration versus time curves, the time to peak and peak exposure are represented by the values Tmax and Cmax, respectively. The AUC values (nM*hr) shown were calculated as the areas under the plasma concentration versus time curves from time zero through the time of the last observable value and represent the total exposure of the compound over the course of the study. Half-life values or the amount of time required for the plasma levels of the compound to decline to half the initial value are represented as t½.

[3] = system: A-10 rat thoracic aorta cells; test: PDGF-stimulated smooth muscle cell proliferation assay (BrdU incorporation); format: cell-based; conditions: A-10 cells, 10 ng/mL PDGF, BrdU incorporation, percent of total challenge-stimulated proliferation;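 also: cells kept in serum-free medium, BrdU allowed to incorporate for 24 h, then incorporated label detected fluorometrically with an anti-BrdU antibody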
[4] = Compound plasma concentrations in unsensitized mice at 15 min post administration; format: in vivo; conditions: mouse, 15 μmol/kg; mean compound plasma concentration in mice at 15 minutes post oral administration; read-out: Mouse Oral PK
human monocytes = test: Human monocyte cytokine secretion assay (LPS-stimulated); format: cell-based; conditions: average percent of stimulated IL-6 secretion from human monocytes at 10 μM of test compound
Method: Peripheral blood from healthy human volunteers was collected and the monocytes isolated via Ficoll-paque density centrifugation. […] The cells were allowed to pre-incubate with test compound at the indicated concentration for 30 minutes (37° C., 5% CO2, humidified air); after which the supernatant was removed and media containing compound and 1 ng/mL LPS was added. Cells were allowed to incubate with compounds and LPS for 4 hours at 37° C. after which the supernatant was removed and stored at −80° C. Cytokine concentrations in the supernatant were determined using commercially available Bio-Rad Bio-plex™ kits according the manufacturer's instructions.

human neutrophils = test: Human neutrophil chemotaxis induced by fMLP (modified Boyden chamber); format: cell-based; conditions: Neutrophil, 1 h, 1 μM fMLP challenge, one hour, read-out: Chemotaxis Avg. IC50
From the text: This assay is an in vitro assay of neutrophil chemotaxis that can be used to evaluate the ability of Rho Kinase inhibitor compounds of Formula I or II to inhibit the migration of human neutrophils, an inflammatory cell that has been implicated in the pathophysiology of allergic conjunctivitis.
Peripheral blood from healthy human volunteers was collected and the neutrophils were isolated by Ficoll-paque density centrifugation followed by dextran sedimentation and hypotonic lysis of the red blood cells. Neutrophil chemotaxis was assessed using a modified Boyden Chamber (Neuroprobe, 96-well) with a 3 μm pore polycarbonate membrane. The ability of the tested compounds to block chemotaxis induced by a 1 μM fMLP challenge during a one hour incubation at 37° C. with 5% CO2 was assessed in a dose response manner.

[5] = 30 μM ATP, Ki=IC50/(1+([ATP Challenge]/EC50 ATP)), read-out: p70S6K Ki, Avg
[6] = average Ki, read-out: p70S6K Ki
[7] = 30 μM ATP, Ki=IC50/(1+([ATP Challenge]/EC50 ATP)), read-out: Akt3 Ki, Avg
[8] = 10 μM ATP, read-out: ROCK2 Ki, Avg

T1 sequence (P28482 whole entry): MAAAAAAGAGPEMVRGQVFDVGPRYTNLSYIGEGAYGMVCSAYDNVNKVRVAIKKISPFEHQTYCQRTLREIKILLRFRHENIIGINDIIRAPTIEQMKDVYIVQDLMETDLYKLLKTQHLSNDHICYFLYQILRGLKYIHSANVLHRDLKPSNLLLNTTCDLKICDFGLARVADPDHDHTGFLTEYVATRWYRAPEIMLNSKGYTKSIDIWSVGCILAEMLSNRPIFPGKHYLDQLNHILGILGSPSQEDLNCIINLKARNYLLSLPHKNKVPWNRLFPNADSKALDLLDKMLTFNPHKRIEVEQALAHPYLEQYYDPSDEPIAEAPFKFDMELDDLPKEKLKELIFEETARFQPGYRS

SMILES | ERK2 Percent inhibition, 1 μM (ERK2) [%] | ERK2 Percent inhibition, 10 μM (ERK2) [%] | Ki (p70S6K human enzyme; [5]) [µM] | Ki (p70S6K human enzyme; [6]) [µM] | log10AUC (Penh) ([1]; 0.5 μmol/kg/intratracheal) | airway hyperreactivity [1] | activity at 1 µM (IRAK1) [%] | activity at 10 µM (IRAK1) [%] | Ki (ROCK1; Avg, 10 μM ATP) [µM] | Ki (ROCK1; average Ki) [µM] | Ki (Akt3 human enzyme; [7]) [µM] | Ki (Akt3 human enzyme; average Ki, read-out: Akt3 Ki) [µM] | Ki (ROCK2; [8]) [µM] | Ki (ROCK2; average Ki, read-out: ROCK2 Ki) [µM] | GCK Percent inhibition, 1 μM (GCK) [%] | activity at 10 µM (GCK) [%] | activity at 1 µM (Mnk2) [%] | activity at 10 µM (Mnk2) [%] | concentration at 15 min [4] [nM] | IL-6, % (human monocytes) [%] | also measured
Cc1ccc(CN2CCC[C@@H](Nc3ccc4[nH]ncc4c3)C2)cc1OCCO [Compound 1.161, (R)-2-(5-((3-(1H-indazol-5-ylamino)piperidin-1-yl)methyl)-2-methylphenoxy)ethanol] | 104 | 92 | 0.129 | 0.129 | 2.0405 | prevention of airway hyperreactivity | 106 | 99 | 0.0099 | 0.0099 | 0.0635 | 0.0635 | 0.0025 | 0.0025 | 96 | 91 | 108 | 106 | – | – | activity at 1 µM (IRAK4; 1 μM test compound, read-out: IRAK4 Percent inhibition, 1 μM): 96%; activity at 10 µM (IRAK4; 10 μM test compound, read-out: IRAK4 Percent inhibition, 10 μM): 109%
OCCn1ccc2cc(CN3CC[C@@H](Nc4cccc5cnccc45)C3)ccc21 [Compound 2.066, (R)-2-(5-((3-(isoquinolin-5-ylamino)pyrrolidin-1-yl)methyl)-1H-indol-1-yl)ethanol] | 50 | 12 | 0.368 | 0.368 | 2.0248 | prevention of airway hyperreactivity | 74 | 32 | 0.0102 | 0.0102 | 2.51 | 2.51 | 0.0023 | 0.0023 | 39 | 7 | 99 | 54 | – | – | inhibition at 1 µM (ERK2; 1 μM, read-out: ERK2 inhibited): ~50%; activity at 1 µM (ERK1; 1 μM test compound, 10 μM ATP, read-out: ERK1 Percent inhibition, 1 μM): 52%; inhibition at 1 µM (ERK1; 1 μM, read-out: ERK1 inhibited): ~50%; activity at 10 µM (ERK1; 10 μM test compound, 10 μM ATP, read-out: ERK1 Percent inhibition, 10 μM): 15%
CSc1ccc(CN2CCC[C@@H](Nc3ccc4[nH]ncc4c3)C2)cc1 [Compound 1.074, (R)-N-(1-(4-(methylthio)benzyl)piperidin-3-yl)-1H-indazol-5-amine] | – | – | 0.548 | 0.548 | – | – | – | – | 0.0401 | 0.0401 | 0.437 | 0.437 | 0.0041 | 0.0041 | – | – | – | – | 506 | 96.0 | Vz_F ([2]; mean n = 3): 45.7 L/kg; AUC(0-t) ([2]; male, CD Sprague Dawley, mean n = 3): 1.17 µM·h; Cmax ([2]; male, CD Sprague Dawley, mean n = 3, read-out: Cmax): 735 nM; Tmax ([2]; male, CD Sprague Dawley, mean n = 3, read-out: Tmax): 25.2 min; Percent of PDGF Induced Proliferation at 1 μM Avg ([3]; 1 μM test compound): 79.9%; Percent of PDGF Induced Proliferation at 10 μM Avg ([3]; 10 μM test compound): 46.9%
C[C@@H](N)[C@H]1CC[C@H](C(=O)Nc2ccncc2)CC1 [Compound Y-27632, reference compound] | – | – | – | – | – | – | – | – | – | – | – | – | – | – | – | – | – | – | – | – | log10AUC (Penh) ([1]; 30 μmol/kg/oral): 1.9942; IC50 (human neutrophils): 6.77 µM
C[C@@H]1C[C@H]2[C@@H]3CCC4=CC(=O)C=C[C@]4(C)[C@@]3(F)[C@@H](O)C[C@]2(C)[C@@]1(O)C(=O)CO [Dexamethasone, dexamethasone, reference compound] | – | – | – | – | – | – | – | – | – | – | – | – | – | – | – | – | – | – | – | – | log10AUC (Penh) ([1]; 1 mg/kg/oral): 2.0216
NC(=O)Cn1ccc2ccc(CN3CC[C@@H](Nc4cccc5cnccc45)C3)cc21 [Compound 2.058, (R)-2-(6-((3-(isoquinolin-5-ylamino)pyrrolidin-1-yl)methyl)-1H-indol-1-yl)acetamide] | – | – | 0.213 | 0.213 | – | – | – | – | 0.0153 | 0.0153 | 1.94 | 1.94 | 0.0033 | 0.0033 | – | – | – | – | 194 | 1.3 | –
